These results are taken from article PMC3836566 (Chemical research in toxicology, 2013).

The target of series [1] is thyroid hormone sulfotransferase activity in pooled human liver cytosol. Description: Inhibition of 3,3′-T2 sulfotransferase activity. Conditions: for IC50: read-out: IC50 (nM) (95% CI) for the inhibition of 3,3′-T2S formation, 1 μM 3,3′-T2, 0.25 mg protein/ml pooled human liver cytosol, 50 μM PAPS, 30 min, 37°C; for inhibition of 3,3′-T2 sulfation (result in words): range of concentrations tested 10–1000 nM.

The subject of series [2] is thyroid hormone sulfotransferase activity in pooled human liver cytosol. Briefly: Mechanism of 3,3′-T2 sulfotransferase inhibition. It counts as biochemical. The conditions noted are these: 3,3′-T2 0–5000 nM with varying 4-OH BDE 90; Vmax lower, apparent Km unchanged.
The subject of the next series is SULT2A1. Conditions: read-out: Km of 3,3′-T2 for SULT2A1; cited from earlier work.
The subject of a further series is SULT1A3. The conditions noted are these: read-out: Km of 3,3′-T2 for SULT1A3; cited from earlier work.
In the next series the test system is SULT1E1. The conditions noted are these: read-out: Km of 3,3′-T2 for SULT1E1; cited from earlier work.
For the next series, the system named is SULT1A1. The conditions noted are these: read-out: Km of 3,3′-T2 for SULT1A1; cited from earlier work.
The test system of series [3] is thyroid hormone sulfotransferase activity. Description: 3,3′-T2 sulfation kinetics in pooled human liver cytosol. It counts as biochemical. Conditions: human, pooled human liver cytosol.
Series [4] relates to thyroid hormone sulfotransferase activity in pooled human liver cytosol. The description is as above. It counts as biochemical.

Each structure is given as a SMILES string. “Also recorded” adds a separate entry of the source.

For orientation: IC50 means the point on the concentration scale where inhibition reaches its midpoint. The term Km denotes the substrate concentration at which the rate is half of its maximum. Broadly, the microsomal CLint is the rate of metabolic loss divided by the concentration.

For the compound `Oc1cc(Br)c(Oc2ccc(Br)cc2Br)cc1Br` [4′-OH BDE 49, 4′-OH 2,2′,4,5′-tetraBDE], in series [1], the half-maximal inhibitory concentration (IC50) was determined as 650 nM. Still for that read-out and setting: as for `Oc1cc(Br)c(Oc2cc(Br)c(Br)cc2Br)cc1Br` [4′-OH BDE 101, 4′-OH 2,2′,4,5, 5′-pentaBDE], the figure is 640 nM.

As for `Oc1c(Br)cc(Oc2ccc(Br)cc2Br)c(Br)c1Br` [4-OH BDE 90, 4-OH 2,2′,3,4′,5-pentaBDE], the inhibition mechanism entry in series [2] is on record as “non-competitive”. Moreover, the half-inhibitory concentration (IC50) in series [1] stood at 24 nM. Take `Oc1cc(Br)cc(Br)c1Oc1ccc(Br)cc1Br` [6-OH BDE 47, 6-OH 2,2′,4,4′-tetraBDE]: the IC50 in series [1] was 130 nM. Regarding `Oc1c(Br)ccc(Oc2ccc(Br)cc2Br)c1Br` [3-OH BDE 47, 3-OH 2,2′,4,4′-tetraBDE], the IC50 in series [1] was 60 nM. `Oc1cc(Oc2cc(Br)c(Br)cc2Br)c(Br)cc1Br` [5′-OH BDE 99, 5′-OH 2,2′,4,4′,5-pentaBDE]: the IC50 in series [1] came to 520 nM. `Oc1cc(Cl)ccc1Oc1ccc(Cl)cc1Cl` [Triclosan, triclosan]: the “fold less potent than 3′-OH BDE 28” value in series [1] (3,3′-T2 sulfotransferase inhibition potency) is recorded as “approximately 7 fold”. Also, the IC50 in series [1] worked out at 1410 nM. Regarding `Oc1c(Br)cc(Br)c(Oc2cc(Br)c(Br)cc2Br)c1Br` [3′-OH BDE 154, 3-OH 2,2′,4,4′,5,6′-hexaBDE], the concentration for half-maximal inhibition (IC50) in series [1] is 80 nM. Still for that read-out and setting: under `Oc1ccccc1Oc1ccc(Br)cc1` [2′-OH BDE 3, 2′-OH 4-monoBDE] stands 500 nM. The same measure, in the same setting: under `Oc1ccc(C(c2ccc(O)cc2)(C(F)(F)F)C(F)(F)F)cc1` [BPA-AF, 4,4′-(hexafluoroisopropylidene)diphenol] stands 8590 nM; under `CC(C)(c1cc(Cl)c(O)c(Cl)c1)c1cc(Cl)c(O)c(Cl)c1` [TCBPA, 3,3′,5,5′-tetrachlorobisphenol A], 340 nM. With `Oc1c(Br)cc(Br)cc1Br` [2,4,6-TBP, 2,4,6-tribromophenol], in series [1], the IC50 came out at 8.3 nM. For `Oc1cc(Oc2ccc(Br)cc2Br)ccc1Br` [3′-OH BDE 28, 3′-OH 2,4,4′-triBDE], the concentration for half-maximal inhibition (IC50) in series [1] came to 190 nM. Take `N[C@@H](Cc1ccc(Oc2ccc(O)c(I)c2)c(I)c1)C(=O)O` [3,3′-T2, 3,3′-diiodothyronine]: the Michaelis constant (Km) was 3 µM with SULT2A1; 31 to 35 µM in the series with SULT1A3; 3.5 to 9.7 µM in the series with SULT1E1; 0.12 µM in the series on SULT1A1; 1.07 ± 0.12 µM in series [4] (read-out: apparent Km for the 3,3′-T2 sulfation reaction, pooled human liver cytosol 0.25 mg protein/ml, 30 min). In series [3], this compound registered a microsomal CLint of 145 µL/min/mg. Also, the “3,3′-T2S formation rate under standard conditions” value in series [4] (1 μM 3,3′-T2, 30 min incubation, 0.25 mg protein/ml) is listed as 70–80 pmol/min.mg protein. Moreover, the “Vmax for 3,3′-T2 sulfate formation” value in series [4] (pooled human liver cytosol 0.25 mg protein/ml, 30 min) is on record as 153 ± 6.6 pmol/min.mg protein.

For the compound `Oc1c(F)cc(F)cc1F` [2,4,6-TFP, 2,4,6-trifluorophenol], the IC50 in series [1] was found to be 4.6 nM. The same measure, in the same setting: under `Oc1cc(Oc2ccc(Br)cc2Br)c(Br)cc1Br` [5-OH BDE 47, 5-OH 2,2′,4,4′-tetraBDE] stands 400 nM; under `Oc1cccc(Oc2ccc(Br)cc2Br)c1` [3′-OH BDE 7, 3′-OH 2,4-diBDE], 410 nM; under `Oc1c(Br)c(Br)c(Oc2c(Br)cc(Br)c(Br)c2Br)c(Br)c1Br` [4′-OH BDE 201, 4′-OH 2,2′,3,3′,4,5′,6,6′-octaBDE], 510 nM. The same measure, in the same setting: as for `Oc1cc(Br)cc(Br)c1Oc1cc(Br)c(Br)cc1Br` [6′-OH BDE 99, 6′-OH 2,2′,4,4′,5-pentaBDE], the figure is 310 nM.

In the case of `CC(C)(c1cc(Br)c(O)c(Br)c1)c1cc(Br)c(O)c(Br)c1` [TBBPA, tetrabromobisphenol A], the half-inhibitory concentration (IC50) in series [1] was 460 nM. As for `CC(C)(c1cc(I)c(O)c(I)c1)c1cc(I)c(O)c(I)c1` [TIBPA, 3,3′,5,5′-tetraiodobisphenol A], in series [1], the IC50 was 13200 nM. Turning to `Oc1c(I)cc(I)cc1I` [2,4,6-TIP, 2,4,6-triiodophenol], in series [1], the IC50 is 140 nM. Regarding `Brc1ccc(Oc2ccc(Br)cc2Br)c(Br)c1` [BDE 47, 2,2′,4,4′-tetrabromodiphenyl ether], the “inhibition of 3,3′-T2 sulfation (result in words)” value in series [1] is “did not inhibit 3,3′-T2 sulfation; also recorded: did not show inhibition”; in series [1] (listed as BDE-47) it was “did not show sulfotransferase inhibition”.
